Assay results as given in US20260092061A1, “COMPOUNDS FOR TARGETED PROTEIN DEGRADATION” (Amphista Therapeutics Limited, priority 2022, published 2026).
Read-outs that look alike come from different tables or passages of the source.

Biological target: T1, BRD9 (Homo sapiens, UniProt Q9H8M2)
T1 sequence (Q9H8M2 1-597): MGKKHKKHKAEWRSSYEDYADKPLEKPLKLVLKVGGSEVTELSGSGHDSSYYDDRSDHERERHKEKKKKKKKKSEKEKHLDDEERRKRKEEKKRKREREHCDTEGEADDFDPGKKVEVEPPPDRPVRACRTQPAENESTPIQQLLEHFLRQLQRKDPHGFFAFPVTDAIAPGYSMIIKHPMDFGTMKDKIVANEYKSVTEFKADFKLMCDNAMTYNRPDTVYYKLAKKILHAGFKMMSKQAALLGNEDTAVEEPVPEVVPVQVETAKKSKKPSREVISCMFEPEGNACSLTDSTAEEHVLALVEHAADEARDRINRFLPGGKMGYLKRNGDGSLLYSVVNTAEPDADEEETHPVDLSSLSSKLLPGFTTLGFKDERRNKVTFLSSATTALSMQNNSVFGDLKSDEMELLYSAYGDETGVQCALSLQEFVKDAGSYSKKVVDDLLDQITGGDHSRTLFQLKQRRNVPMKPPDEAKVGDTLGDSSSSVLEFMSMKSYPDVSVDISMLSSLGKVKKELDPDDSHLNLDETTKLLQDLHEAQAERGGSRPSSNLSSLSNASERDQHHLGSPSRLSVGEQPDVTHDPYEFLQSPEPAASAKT
Assay: Degradation of BRD9 (IF), immunofluorescence in MV4-11 cells, 24 hours (Assay Protocol 2)
Format: cell-based
Parameters: A suspension of MV4-11 cells (ATCC CRL-9591) was prepared; host or cells: MV4-11
Details: BRD9 degradation; for DC50: read-out: DC50
Method in brief: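 MV4-11 cells treated with compound 24 h at 37° C., then fixed, permeabilised and immunostained for BRD9 (anti-BRD9 E4Q3F, Alexa 647 secondary, Hoechst counterstain). High-content imaging quantified nuclear BRD9 signal; % BRD9 remaining normalised to DMSO and 100 nM CFT-8634 controls.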

[1] = MV4-11, Assay protocol 2, read-out: Dmax

DC50 (Assay protocol 2) [nM]	Dmax [1] [%]	Dmax (Assay protocol 2)	SMILES
1.25 to 10	> 75		COc1cc(-c2cn(C)c(=O)c(C)c2C)ccc1CN1CCN(Cc2cccc3c2CCN(C(=O)/C(C#N)=C/C(C)(C)C)C3C)C2(CC2)C1 (mixture of isomers) [Compound B147, (E/Z)-2-(5-((7-(2-methoxy-4-(1,4,5-trimethyl-6-oxo-1,6-dihydropyridin-3-yl)benzyl)-4,7-diazaspiro[2.5]octan-4-yl)methyl)-1-methyl-1,2,3,4-tetrahydroisoquinoline-2-carbonyl)-4,4-dimethylpent-2-enenitrile]
< 1.25	> 75		COc1cc(-c2cn(C)c(=O)c(C)c2C)cc(OC)c1CN1CCN(Cc2cccc3c2CCN(C(=O)/C(C#N)=C/C2(C)CCC2)C3C)C2(CC2)C1 (mixture of isomers) [Compound B149, (E/Z)-2-(5-((7-(2,6-dimethoxy-4-(1,4,5-trimethyl-6-oxo-1,6-dihydropyridin-3-yl)benzyl)-4,7-diazaspiro[2.5]octan-4-yl)methyl)-1-methyl-1,2,3,4-tetrahydroisoquinoline-2-carbonyl)-3-(1-methylcyclobutyl)acrylonitrile]
< 1.25	> 75		COc1cc(-c2cn(C)c(=O)c(C)c2C)cc(OC)c1CN1CCN(Cc2cccc3c2CCN(C(=O)/C(C#N)=C/C2(C(F)(F)F)CC2)C3C)C2(CC2)C1 (mixture of isomers) [Compound B153, (E/Z)-2-[5-[[7-[[2,6-dimethoxy-4-(1,4,5-trimethyl-6-oxo-3-pyridyl)phenyl]methyl]-4,7-diazaspiro[2.5]octan-4-yl]methyl]-1-methyl-3,4-dihydro-1H-isoquinoline-2-carbonyl]-3-[1-(trifluoromethyl)cyclopropyl]prop-2-enenitrile]
< 1.25	40 to 70		COc1cc(-c2cn(C)c(=O)c(C)c2C)cc(OC)c1CN1CCN(Cc2cccc3c2CCN(C(=O)/C(C#N)=C/C(C)(C)C)C3C)CC1(C)C (mixture of isomers) [Compound B159, (E/Z)-2-(5-((4-(2,6-dimethoxy-4-(1,4,5-trimethyl-6-oxo-1,6-dihydropyridin-3-yl)benzyl)-3,3-dimethylpiperazin-1-yl)methyl)-1-methyl-1,2,3,4-tetrahydroisoquinoline-2-carbonyl)-4,4-dimethylpent-2-enenitrile]
< 1.25	> 75		COc1cc(-c2cn(C)c(=O)c(C)c2C)cc(OC)c1CN1CCN(Cc2cccc3c2CCN(C(=O)/C(C#N)=C\C24CC(C)(C2)C4)C3C)C2(CC2)C1 (mixture of isomers) [Compound B161, (E/Z)-2-(5-((7-(2,6-dimethoxy-4-(1,4,5-trimethyl-6-oxo-1,6-dihydropyridin-3-yl)benzyl)-4,7-diazaspiro[2.5]octan-4-yl)methyl)-1-methyl-1,2,3,4-tetrahydroisoquinoline-2-carbonyl)-3-(3-methylbicyclo[1.1.1]pentan-1-yl)acrylonitrile]

The next lines start with the molecule.

SMILES	DC50 (Assay protocol 2) [nM]	Dmax [1] [%]	Dmax (Assay protocol 2)
COc1cc(-c2cn(C)c(=O)c(C)c2C)cc(OC)c1CN1CCN(Cc2cccc3c2CCN(C(=O)/C(C#N)=C/C2(C)CCCCC2)C3C)C2(CC2)C1 (mixture of isomers) [Compound B143, (E/Z)-2-(5-((7-(2,6-dimethoxy-4-(1,4,5-trimethyl-6-oxo-1,6-dihydropyridin-3-yl)benzyl)-4,7-diazaspiro[2.5]octan-4-yl)methyl)-1-methyl-1,2,3,4-tetrahydroisoquinoline-2-carbonyl)-3-(1-methylcyclohexyl)acrylonitrile]	10 to 25	70 to 75	
COc1cc(-c2cn(C)c(=O)c(C)c2C)cc(OC)c1CN1CCN(Cc2cccc3c2CCN(C(=O)/C(C#N)=C/C2(CF)CC2)C3C)C2(CC2)C1 (mixture of isomers) [Compound B144, (E/Z)-2-(5-((7-(2,6-dimethoxy-4-(1,4,5-trimethyl-6-oxo-1,6-dihydropyridin-3-yl)benzyl)-4,7-diazaspiro[2.5]octan-4-yl)methyl)-1-methyl-1,2,3,4-tetrahydroisoquinoline-2-carbonyl)-3-(1-(fluoromethyl)cyclopropyl)acrylonitrile]	< 1.25	> 75	
COc1cc(-c2cn(C)c(=O)c(C)c2C)cc(OC)c1CN1CCN(Cc2cccc3c2CCN(C(=O)/C(C#N)=C/C2(C)CCCC2)C3C)C2(CC2)C1 (mixture of isomers) [Compound B145, (E/Z)-2-(5-((7-(2,6-dimethoxy-4-(1,4,5-trimethyl-6-oxo-1,6-dihydropyridin-3-yl)benzyl)-4,7-diazaspiro[2.5]octan-4-yl)methyl)-1-methyl-1,2,3,4-tetrahydroisoquinoline-2-carbonyl)-3-(1-methylcyclopentyl)acrylonitrile]	< 1.25	> 75	
COc1cc(-c2cn(C)c(=O)c(C)c2C)cc(OC)c1CN1CCN(Cc2cccc3c2CCN(C(=O)/C(C#N)=C/C(C)(C)C)C3C)C2CC21 (mixture of isomers) [Compound B148, (E/Z)-2-(5-((5-(2,6-dimethoxy-4-(1,4,5-trimethyl-6-oxo-1,6-dihydropyridin-3-yl)benzyl)-2,5-diazabicyclo[4.1.0]heptan-2-yl)methyl)-1-methyl-1,2,3,4-tetrahydroisoquinoline-2-carbonyl)-4,4-dimethylpent-2-enenitrile]	1.25 to 10	40 to 70	
COc1cc(-c2cn(C)c(=O)c(C)c2C)cc(OC)c1CN1CCN(Cc2cccc3c2CCN(C(=O)/C(C#N)=C/C(C)(C)C(F)(F)F)C3C)C2(CC2)C1 (mixture of isomers) [Compound B152, (E/Z)-2-(5-((7-(2,6-dimethoxy-4-(1,4,5-trimethyl-6-oxo-1,6-dihydropyridin-3-yl)benzyl)-4,7-diazaspiro[2.5]octan-4-yl)methyl)-1-methyl-1,2,3,4-tetrahydroisoquinoline-2-carbonyl)-5,5,5-trifluoro-4,4-dimethylpent-2-enenitrile]	1.25 to 10	> 75	
COc1cc(-c2cn(C)c(=O)c(C)c2C)cc(OC)c1CN1CCN(CCc2cccc3c2CCN(C(=O)/C(C#N)=C/C(C)(C)C)C3C)C2(CC2)C1 (mixture of isomers) [Compound B154]	10 to 25	40 to 70	
COc1cc(-c2cn(C)c(=O)c(C)c2C)cc(OC)c1CN1CCN(Cc2cccc3c2CCN(C(=O)/C(C#N)=C/C(C)(C)C)C3C)C(=O)C1 (mixture of isomers) [Compound B155, (E/Z)-2-(5-((4-(2,6-dimethoxy-4-(1,4,5-trimethyl-8-oxo-1,6-dihydropyridin-3-yl)benzyl)-2-oxopiperazin-1-yl)methyl)-1-methyl-1,2,3,4-tetrahydroisoquinoline-2-carbonyl)-4,4-dimethylpent-2-enenitrile]	25 to 1000	40 to 70	
COc1cc(-c2cn(C)c(=O)c(C)c2C)cc(OC)c1CN1CCC(Cc2cccc3c2CCN(C(=O)/C(C#N)=C/C(C)(C)C)C3C)CC1 (mixture of isomers) [Compound B156, (E/Z)-2-(5-((1-(2,6-dimethoxy-4-(1,4,5-trimethyl-6-oxo-1,6-dihydropyridin-3-yl)benzyl)piperidin-4-yl)methyl)-1-methyl-1,2,3,4-tetrahydroisoquinoline-2-carbonyl)-4,4-dimethylpent-2-enenitrile]	1.25 to 10	40 to 70	
COc1cc(-c2cn(C)c(=O)c3[nH]ncc23)cc(OC)c1CN1CCN(Cc2cccc3c2CCN(C(=O)/C(C#N)=C/C(C)(C)C)C3C)CC12CC2 (mixture of isomers) [Compound B158, (E/Z)-2-(5-((4-(2,6-dimethoxy-4-(6-methyl-7-oxo-6,7-dihydro-1H-pyrazolo[3,4-c]pyridin-4-yl)benzyl)-4,7-diazaspiro[2.5]octan-7-yl)methyl)-1-methyl-1,2,3,4-tetrahydroisoquinoline-2-carbonyl)-4,4-dimethylpent-2-enenitrile]	< 1.25	> 75	
COc1cc(-c2cn(C)c(=O)c(C)c2C)cc(OC)c1CN1CCN(Cc2cccc3c2CCN(C(=O)/C(C#N)=C/C2(C(F)(F)F)CCC2)C3C)C2(CC2)C1 (mixture of isomers) [Compound B160, (E/Z)-2-[5-[[7-[[2,6-dimethoxy-4-(1,4,5-trimethyl-6-oxo-3-pyridyl)phenyl]methyl]-4,7-diazaspiro[2.5]octan-4-yl]methyl]-1-methyl-3,4-dihydro-1H-isoquinoline-2-carbonyl]-3-[1-(trifluoromethyl)cyclobutyl]prop-2-enenitrile]	1.25 to 10	> 75	
COc1cc(-c2cn(C)c(=O)c(C)c2C)cc(OC)c1CN1CCN(Cc2cccc3c2CCN(C(=O)/C(C#N)=C/C2CCOC2)C3C)C2(CC2)C1 (mixture of isomers) [Compound B173, (E/Z)-2-(5-((7-(2,6-dimethoxy-4-(1,4,5-trimethyl-6-oxo-1,6-dihydropyridin-3-yl)benzyl)-4,7-diazaspiro[2.5]octan-4-yl)methyl)-1-methyl-1,2,3,4-tetrahydroisoquinoline-2-carbonyl)-3-(tetrahydrofuran-3-yl)acrylonitril]	< 1.25		+++ (+++ = ≥75%)
